Measured values as given in PubChem BioAssay AID330 (DTP/NCI, 2004).
“And” between values parts separate entries of the source, which are not always exact repeats. Identical values can stand only once. Toxic doses and inconclusive results are not listed.

System: P388 leukemia ip, CD2F1 mice, survival T/C
Assay: NCI In Vivo Anticancer Drug Screen. Data for tumor model P388 Leukemia (intraperitoneal) in CD2F1 (CDF1) mice
Conditions: endpoint: median survival time, higher = longer survival
Summary of the method: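 Mice carrying the transplanted tumor received test compound or vehicle. Survival was recorded in each group, and the value is the treated-group measurement divided by that of the vehicle-treated control group.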

[1] = dose: 50.0 mg/kg/injection, schedule: Q01DX009 (ip), vehicle: saline with Tween-80
[2] = dose: 100.0 mg/kg/injection, schedule: Q01DX009 (ip), vehicle: saline with Tween-80
[3] = dose: 12.5 mg/kg/injection, schedule: Q01DX009 (ip), vehicle: saline with Tween-80
[4] = dose: 25.0 mg/kg/injection, schedule: Q01DX009 (ip), vehicle: saline with Tween-80
[5] = dose: 200.0 mg/kg/injection, schedule: Q01DX009 (ip), vehicle: saline with Tween-80
[6] = dose: 60.0 mg/kg/injection, schedule: Q01DX005 (ip), vehicle: Klucel (hydroxypropylcellulose) (HPC)
[7] = dose: 120.0 mg/kg/injection, schedule: Q01DX005 (ip), vehicle: Klucel (hydroxypropylcellulose) (HPC)
[8] = dose: 240.0 mg/kg/injection, schedule: Q01DX005 (ip), vehicle: Klucel (hydroxypropylcellulose) (HPC)
[9] = dose: 50.0 mg/kg/injection, schedule: Q01DX009 (ip), vehicle: saline
[10] = dose: 100.0 mg/kg/injection, schedule: Q01DX009 (ip), vehicle: saline
[11] = dose: 200.0 mg/kg/injection, schedule: Q01DX009 (ip), vehicle: saline
[12] = dose: 50.0 mg/kg/injection, schedule: Q01DX009 (ip), vehicle: water

In the case of O=c1[nH]c2cc([N+](=O)[O-])ccc2nc1/C=C(\O)c1ccccc1, the T/C (dose: 60.0 mg/kg/injection, schedule: Q01DX005 (ip), vehicle: Klucel + Tween-80) is reported as 100 % of control, the T/C (dose: 120.0 mg/kg/injection, schedule: Q01DX005 (ip), vehicle: Klucel + Tween-80) is reported as 92 % of control and the T/C (dose: 240.0 mg/kg/injection, schedule: Q01DX005 (ip), vehicle: Klucel + Tween-80) is reported as 92 % of control.
O=C(C[N+](=O)[O-])c1ccc(Cl)cc1 was tested, and the T/C [1] was 87 % of control and the T/C [2] was 91 % of control.
In the case of CCOP(O)(=S)OCC.[Tb], the T/C (dose: 100.0 mg/kg/injection, schedule: Q04DX003 (ip), vehicle: Klucel (hydroxypropylcellulose) (HPC)) is reported as 92 % of control, the T/C (dose: 200.0 mg/kg/injection, schedule: Q04DX003 (ip), vehicle: Klucel (hydroxypropylcellulose) (HPC)) is reported as 87 % of control and the T/C (dose: 400.0 mg/kg/injection, schedule: Q04DX003 (ip), vehicle: Klucel (hydroxypropylcellulose) (HPC)) is reported as 90 % of control.
With [CH3][Ga]([CH3])[n]1cccn1 the T/C (dose: 3.12 mg/kg/injection, schedule: Q01DX005 (ip), vehicle: Klucel (hydroxypropylcellulose) (HPC)) was 100 % of control and the T/C (dose: 6.25 mg/kg/injection, schedule: Q01DX005 (ip), vehicle: Klucel (hydroxypropylcellulose) (HPC)) was 111 % of control.
In the case of O=C(Nc1cccc(Br)c1)Oc1cccc2cccnc12, the T/C (dose: 60.0 mg/kg/injection, schedule: Q01DX005 (ip), vehicle: saline with Tween-80) is reported as 105 % of control, the T/C (dose: 120.0 mg/kg/injection, schedule: Q01DX005 (ip), vehicle: saline with Tween-80) is reported as 94 % of control and the T/C (dose: 240.0 mg/kg/injection, schedule: Q01DX005 (ip), vehicle: saline with Tween-80) is reported as 90 % of control.
For O=C([Se][Se]C(=O)c1ccccc1)c1ccccc1, the T/C (dose: 6.25 mg/kg/injection, schedule: Q01DX009 (ip), vehicle: saline with Tween-80) was 101 % of control, the T/C [3] was 107 % of control and the T/C [4] was 107 % of control.
In the case of NN(Cc1ccccc1[N+](=O)[O-])c1ccccc1, the T/C [1] is reported as 100 % of control, the T/C [2] is reported as 86 % of control and the T/C [5] is reported as 101 % of control.
In the case of CCOc1nc(C)c(C)c(-c2ccc(OC)c(OC)c2OCc2ccccc2)c1C#N, the T/C (dose: 0.05 mg/kg/injection, schedule: Q01DX009 (ip), vehicle: other) is reported as 117 % of control, the T/C (dose: 0.1 mg/kg/injection, schedule: Q01DX009 (ip), vehicle: other) is reported as 96 % of control and the T/C (dose: 0.2 mg/kg/injection, schedule: Q01DX009 (ip), vehicle: other) is reported as 101 % of control. For the same molecule, the T/C (dose: 0.4 mg/kg/injection, schedule: Q01DX009 (ip), vehicle: other) was 100 % of control and 107 % of control, the T/C (dose: 0.8 mg/kg/injection, schedule: Q01DX009 (ip), vehicle: other) was 110 % of control and the T/C (dose: 1.6 mg/kg/injection, schedule: Q01DX009 (ip), vehicle: other) was 117 % of control. For the same molecule, the T/C (dose: 3.2 mg/kg/injection, schedule: Q01DX009 (ip), vehicle: other) was 115 % of control, the T/C (dose: 6.4 mg/kg/injection, schedule: Q01DX009 (ip), vehicle: DMSO) was 103 % of control and the T/C (dose: 6.4 mg/kg/injection, schedule: Q01DX009 (ip), vehicle: other) was 110 % of control. The T/C (dose: 12.8 mg/kg/injection, schedule: Q01DX009 (ip), vehicle: DMSO) was 94 % of control, the T/C (dose: 25.6 mg/kg/injection, schedule: Q01DX009 (ip), vehicle: DMSO) was 94 % of control and the T/C (dose: 51.2 mg/kg/injection, schedule: Q01DX009 (ip), vehicle: DMSO) was 97 % of control. The T/C (dose: 100.0 mg/kg/injection, schedule: Q01DX009 (ip), vehicle: other) was 104 % of control, the T/C (dose: 102.0 mg/kg/injection, schedule: Q01DX009 (ip), vehicle: DMSO) was 94 % of control and the T/C (dose: 200.0 mg/kg/injection, schedule: Q01DX009 (ip), vehicle: other) was 115 % of control. For the same molecule, the T/C (dose: 400.0 mg/kg/injection, schedule: Q01DX009 (ip), vehicle: other) was 100 % of control.
For CCN(CC)c1ccc(/C=N/Nc2cc(C)nc3ccc(C4CCCCC4)cc23)cc1, the T/C (dose: 50.0 mg/kg/injection, schedule: Q01DX005 (ip), vehicle: saline with Tween-80) was 90 % of control, the T/C (dose: 100.0 mg/kg/injection, schedule: Q01DX005 (ip), vehicle: saline with Tween-80) was 100 % of control and the T/C (dose: 200.0 mg/kg/injection, schedule: Q01DX005 (ip), vehicle: saline with Tween-80) was 118 % of control.
In the case of O=C(Nc1cccc(C(F)(F)F)c1)c1cc2cc(Br)ccc2oc1=O, the T/C [6] is reported as 102 % of control, the T/C [7] is reported as 96 % of control and the T/C [8] is reported as 92 % of control.
In the case of CCOC(=O)C(Cc1ccc(Oc2nc3ccccc3o2)cc1)NC(C)=O (configuration not stated), the T/C (dose: 25.0 mg/kg/injection, schedule: Q01DX001 (ip), vehicle: Klucel (hydroxypropylcellulose) (HPC)) is reported as 110 % of control, the T/C (dose: 50.0 mg/kg/injection, schedule: Q01DX001 (ip), vehicle: Klucel (hydroxypropylcellulose) (HPC)) is reported as 112 % of control and the T/C (dose: 100.0 mg/kg/injection, schedule: Q01DX001 (ip), vehicle: Klucel (hydroxypropylcellulose) (HPC)) is reported as 109 % of control.
In the case of CCCCCC(=O)OC(C)Cl (configuration not stated), the T/C [9] is reported as 99 % of control, the T/C [10] is reported as 97 % of control and the T/C [11] is reported as 106 % of control.
CC([NH-])C[NH-].O=C(O)CC(=O)O.[Pt+2] was tested, and the T/C (dose: 25.0 mg/kg/injection, schedule: Q04DX002 (ip), vehicle: saline with Tween-80) was 153 % of control and 158 % of control and the T/C (dose: 50.0 mg/kg/injection, schedule: Q04DX002 (ip), vehicle: saline with Tween-80) was 179 % of control and 183 % of control.
O=NNc1nc(-c2ccccc2)ns1 was tested, and the T/C (dose: 1.56 mg/kg/injection, schedule: Q01DX009 (ip), vehicle: water) was 100 % of control, the T/C (dose: 3.12 mg/kg/injection, schedule: Q01DX009 (ip), vehicle: water) was 100 % of control and 101 % of control and the T/C (dose: 6.25 mg/kg/injection, schedule: Q01DX009 (ip), vehicle: water) was 104 % of control and 97 % of control. The T/C (dose: 12.5 mg/kg/injection, schedule: Q01DX009 (ip), vehicle: water) was 100 % of control and 97 % of control, the T/C (dose: 25.0 mg/kg/injection, schedule: Q01DX009 (ip), vehicle: water) was 101 % of control and 97 % of control and the T/C [12] was 100 % of control.
With CC(C)C1=C(O)C2=C(C(=O)C1=O)C1(C)CCCC(C)(C)C1CC2O (configuration not stated) the T/C [4] was 100 % of control, the T/C [1] was 104 % of control and the T/C [5] was 108 % of control.
In the case of COc1ccc(C2=NC(=O)OC2(C)C)cc1, the T/C [6] is reported as 110 % of control, the T/C [7] is reported as 102 % of control and the T/C [8] is reported as 108 % of control.
For CC(=O)Nc1nc([N+](=O)[O-])c(C(C)C)s1, the T/C (dose: 100.0 mg/kg/injection, schedule: Q01DX001 (ip), vehicle: saline with Tween-80) was 98 % of control, the T/C (dose: 200.0 mg/kg/injection, schedule: Q01DX001 (ip), vehicle: saline with Tween-80) was 97 % of control and the T/C (dose: 400.0 mg/kg/injection, schedule: Q01DX001 (ip), vehicle: saline with Tween-80) was 93 % of control.
In the case of CC1CC2=C(C(=O)c3ccccc3C2=O)C(C)O1 (configuration not stated), the T/C (dose: 60.0 mg/kg/injection, schedule: Q01DX005 (ip), vehicle: saline) is reported as 106 % of control, the T/C (dose: 120.0 mg/kg/injection, schedule: Q01DX005 (ip), vehicle: saline) is reported as 92 % of control and the T/C (dose: 240.0 mg/kg/injection, schedule: Q01DX005 (ip), vehicle: saline) is reported as 96 % of control.
O=C1OC(=O)C2C3C=CC(C4C=C(c5ccccc5)C43)C12 (configuration not stated) was tested, and the T/C [9] was 106 % of control, the T/C [10] was 92 % of control and the T/C [11] was 107 % of control.
In the case of CSc1nc(C)c(Br)c(Sc2nc(N)nc3nc[nH]c23)n1, the T/C [3] is reported as 104 % of control, the T/C [1] is reported as 113 % of control and 122 % of control and the T/C (dose: 200.0 mg/kg/injection, schedule: Q04DX003 (ip), vehicle: saline with Tween-80) is reported as 95 % of control.
O=C(CNC(=O)c1ccccc1)Nc1ccccc1 was tested, and the T/C (dose: 25.0 mg/kg/injection, schedule: Q01DX009 (ip), vehicle: saline) was 115 % of control, the T/C [9] was 103 % of control and the T/C [10] was 94 % of control. The T/C [11] was 104 % of control.
For CSCSCC(CO)NC(=O)C(Cl)Cl (configuration not stated), the T/C [12] was 102 % of control, the T/C (dose: 200.0 mg/kg/injection, schedule: Q01DX009 (ip), vehicle: water) was 106 % of control and the T/C (dose: 400.0 mg/kg/injection, schedule: Q01DX009 (ip), vehicle: water) was 113 % of control.
C[C@@H]1C[C@H]2[C@@H]3CCC4=CC(=O)C=C[C@]4(C)[C@@]3(F)[C@@H](O)C[C@]2(C)[C@@]1(O)C(=O)CO was tested, and the T/C (dose: 25.0 mg/kg/injection, schedule: Q01DX009 (ip), vehicle: saline sonified) was 100 % of control and the T/C (dose: 50.0 mg/kg/injection, schedule: Q01DX009 (ip), vehicle: saline sonified) was 90 % of control.
